The source of these data is patent US9096593B2, “Compounds and methods for kinase modulation, and indications therefor” (Plexxikon Inc., priority 2009, dated 2015).

Each structure is given as a SMILES string. Read-outs that look alike come from different tables or passages of the source.

For data set [1], the target named is Fms kinase (Homo sapiens (Human), UniProt P07333). Put plainly: Fms kinase biochemical activity assay (AlphaScreen, biotin-(E4Y)10 phosphorylation). The gist of the method: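 Recombinant human Fms phosphorylating 30 nM biotin-(E4Y)10 with 100 μM ATP (1 ng/well enzyme) in Hepes pH 7.5 buffer with Mg2+/Mn2+, 5% DMSO, 20 min at 30 °C. Phosphotyrosine detected by AlphaScreen streptavidin donor/PY20 acceptor beads; IC50 from signal versus compound concentration.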
Sequence of Fms kinase (P07333 20-972): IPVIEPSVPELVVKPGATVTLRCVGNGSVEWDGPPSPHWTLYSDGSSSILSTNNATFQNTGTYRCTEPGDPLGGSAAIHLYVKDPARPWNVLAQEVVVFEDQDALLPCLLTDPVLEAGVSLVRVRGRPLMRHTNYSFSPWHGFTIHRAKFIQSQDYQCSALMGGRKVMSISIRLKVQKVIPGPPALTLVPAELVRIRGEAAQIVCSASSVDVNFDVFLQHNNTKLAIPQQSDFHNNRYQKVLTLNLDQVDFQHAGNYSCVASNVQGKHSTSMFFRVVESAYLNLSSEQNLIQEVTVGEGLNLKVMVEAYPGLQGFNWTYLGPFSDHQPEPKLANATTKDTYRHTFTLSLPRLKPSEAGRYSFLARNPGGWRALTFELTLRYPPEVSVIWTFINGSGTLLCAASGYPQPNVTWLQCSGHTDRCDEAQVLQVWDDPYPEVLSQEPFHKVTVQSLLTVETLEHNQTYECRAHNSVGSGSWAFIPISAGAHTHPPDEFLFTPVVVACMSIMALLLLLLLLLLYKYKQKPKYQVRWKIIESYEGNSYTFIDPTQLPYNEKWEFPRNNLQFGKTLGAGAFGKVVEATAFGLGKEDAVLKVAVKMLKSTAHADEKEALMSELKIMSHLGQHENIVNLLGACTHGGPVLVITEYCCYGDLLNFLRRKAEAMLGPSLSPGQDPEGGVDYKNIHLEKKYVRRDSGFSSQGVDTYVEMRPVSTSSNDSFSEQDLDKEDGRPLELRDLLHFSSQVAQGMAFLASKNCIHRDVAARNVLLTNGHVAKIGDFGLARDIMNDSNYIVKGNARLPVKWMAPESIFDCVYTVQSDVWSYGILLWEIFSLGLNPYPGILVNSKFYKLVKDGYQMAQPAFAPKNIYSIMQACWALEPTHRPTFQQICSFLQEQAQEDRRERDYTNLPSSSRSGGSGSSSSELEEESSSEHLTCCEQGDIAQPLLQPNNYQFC

The target of data set [2] is c-Kit kinase (Homo sapiens (Human), UniProt P10721). Put plainly: c-Kit kinase biochemical activity assay (AlphaScreen, biotin-(E4Y)10 phosphorylation). (In Alpha technology, singlet oxygen from a donor bead excites a nearby acceptor bead.)
Sequence of c-Kit kinase (P10721 26-976): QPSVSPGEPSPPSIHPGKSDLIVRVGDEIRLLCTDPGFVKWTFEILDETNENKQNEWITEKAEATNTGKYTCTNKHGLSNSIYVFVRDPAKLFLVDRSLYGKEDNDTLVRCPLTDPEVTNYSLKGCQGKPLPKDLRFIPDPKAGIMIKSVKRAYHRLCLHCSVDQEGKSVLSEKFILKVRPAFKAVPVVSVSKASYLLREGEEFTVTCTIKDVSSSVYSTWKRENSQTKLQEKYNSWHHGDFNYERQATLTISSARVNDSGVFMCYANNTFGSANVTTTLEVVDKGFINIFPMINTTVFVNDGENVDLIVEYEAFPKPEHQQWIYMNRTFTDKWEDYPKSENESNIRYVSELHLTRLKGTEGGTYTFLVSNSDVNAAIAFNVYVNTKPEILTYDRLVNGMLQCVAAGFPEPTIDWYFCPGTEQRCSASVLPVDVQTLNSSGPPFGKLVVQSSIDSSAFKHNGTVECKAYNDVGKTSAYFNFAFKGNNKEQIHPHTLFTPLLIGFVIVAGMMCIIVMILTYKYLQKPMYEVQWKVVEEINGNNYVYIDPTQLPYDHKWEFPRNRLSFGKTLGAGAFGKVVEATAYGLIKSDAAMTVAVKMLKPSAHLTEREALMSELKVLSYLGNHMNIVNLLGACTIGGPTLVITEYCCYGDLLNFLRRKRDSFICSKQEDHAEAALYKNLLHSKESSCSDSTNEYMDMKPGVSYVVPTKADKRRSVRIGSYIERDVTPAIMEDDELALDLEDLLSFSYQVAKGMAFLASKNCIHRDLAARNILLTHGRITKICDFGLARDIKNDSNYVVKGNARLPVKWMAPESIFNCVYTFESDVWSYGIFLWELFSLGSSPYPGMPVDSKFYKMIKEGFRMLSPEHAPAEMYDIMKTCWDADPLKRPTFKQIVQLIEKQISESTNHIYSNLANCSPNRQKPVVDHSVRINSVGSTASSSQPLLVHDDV
In data set [3] the target is CYP1A2 (Homo sapiens (Human), UniProt P05177). Put plainly: CYP enzyme inhibition, fluorescent substrate.
Sequence of CYP1A2 (P05177 whole entry): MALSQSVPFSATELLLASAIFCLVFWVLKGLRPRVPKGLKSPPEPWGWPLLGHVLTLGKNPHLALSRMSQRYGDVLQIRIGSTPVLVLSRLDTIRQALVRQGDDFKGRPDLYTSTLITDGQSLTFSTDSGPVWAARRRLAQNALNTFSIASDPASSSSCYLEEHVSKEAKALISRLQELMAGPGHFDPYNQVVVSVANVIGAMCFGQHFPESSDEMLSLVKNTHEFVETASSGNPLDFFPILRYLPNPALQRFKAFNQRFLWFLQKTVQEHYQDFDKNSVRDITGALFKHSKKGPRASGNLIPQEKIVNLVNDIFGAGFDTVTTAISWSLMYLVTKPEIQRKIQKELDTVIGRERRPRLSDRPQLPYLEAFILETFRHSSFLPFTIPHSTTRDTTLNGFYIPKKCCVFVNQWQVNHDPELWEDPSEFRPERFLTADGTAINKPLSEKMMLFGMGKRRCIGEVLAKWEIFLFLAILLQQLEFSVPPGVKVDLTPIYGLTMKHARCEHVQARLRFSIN
The target in data set [4] is CYP2C19 (Homo sapiens (Human), UniProt P33261). The experiment in a line: CYP enzyme inhibition, fluorescent substrate. To be noted: read-out: Cyp IC50 (μM) 2C19. In short, it runs like this: (§1)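 […]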
Sequence of CYP2C19 (P33261 whole entry): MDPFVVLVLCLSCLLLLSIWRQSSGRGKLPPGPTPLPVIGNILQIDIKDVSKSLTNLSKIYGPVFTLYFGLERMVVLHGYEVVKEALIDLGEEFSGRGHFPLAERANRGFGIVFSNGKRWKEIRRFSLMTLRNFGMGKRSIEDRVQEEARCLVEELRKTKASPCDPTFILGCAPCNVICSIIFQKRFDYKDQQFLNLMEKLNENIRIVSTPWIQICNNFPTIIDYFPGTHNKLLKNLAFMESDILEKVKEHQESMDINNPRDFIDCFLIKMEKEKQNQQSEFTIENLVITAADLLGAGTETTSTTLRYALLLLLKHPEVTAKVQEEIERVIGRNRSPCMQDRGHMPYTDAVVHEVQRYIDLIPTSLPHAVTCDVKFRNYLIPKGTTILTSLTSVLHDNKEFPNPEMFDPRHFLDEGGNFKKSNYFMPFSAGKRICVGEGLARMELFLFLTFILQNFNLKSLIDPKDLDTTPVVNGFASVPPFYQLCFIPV

Data set [5] concerns the target CYP2C9 (Homo sapiens (Human), UniProt P11712). The experiment in a line: CYP enzyme inhibition, fluorescent substrate. The gist of the method:
as §1

Data set [6] concerns the target CYP2D6 (Homo sapiens (Human), UniProt P10635). Put plainly: CYP enzyme inhibition, fluorescent substrate. To be noted: read-out: Cyp IC50 (μM) 2D6.
For data set [7], the target named is CYP3A4(BFC) (Homo sapiens (Human), UniProt P08684). The experiment in a line: CYP enzyme inhibition, fluorescent substrate. In short, it runs like this:
as §1

The target of data set [8] is CYP3A4(BQ) (Homo sapiens (Human), UniProt P08684). Put plainly: CYP enzyme inhibition, fluorescent substrate. In short, it runs like this: as §1
Sequence of CYP3A4(BQ) (P08684 whole entry): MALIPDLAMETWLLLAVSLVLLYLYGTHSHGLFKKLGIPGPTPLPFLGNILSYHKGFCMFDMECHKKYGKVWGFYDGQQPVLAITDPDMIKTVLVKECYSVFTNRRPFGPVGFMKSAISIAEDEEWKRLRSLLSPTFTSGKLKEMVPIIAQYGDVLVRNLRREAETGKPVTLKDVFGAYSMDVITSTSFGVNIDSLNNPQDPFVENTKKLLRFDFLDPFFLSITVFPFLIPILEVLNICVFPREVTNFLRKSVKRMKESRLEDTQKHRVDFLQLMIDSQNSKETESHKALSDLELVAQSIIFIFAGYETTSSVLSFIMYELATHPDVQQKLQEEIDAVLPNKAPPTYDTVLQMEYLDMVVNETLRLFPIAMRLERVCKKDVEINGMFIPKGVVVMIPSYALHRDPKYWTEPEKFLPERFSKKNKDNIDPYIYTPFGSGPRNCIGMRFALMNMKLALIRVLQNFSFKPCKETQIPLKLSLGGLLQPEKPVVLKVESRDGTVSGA
[9] abbreviates: read-out: Biochemical activity (IC50 μM) Fms.
[10] abbreviates: read-out: Cyp IC50 (μM) 3A4(BFC), BFC substrate.
Where [11] appears, read: read-out: Cyp IC50 (μM) 3A4(BQ), BQ substrate.

Sequence of CYP2D6 (P10635 whole entry): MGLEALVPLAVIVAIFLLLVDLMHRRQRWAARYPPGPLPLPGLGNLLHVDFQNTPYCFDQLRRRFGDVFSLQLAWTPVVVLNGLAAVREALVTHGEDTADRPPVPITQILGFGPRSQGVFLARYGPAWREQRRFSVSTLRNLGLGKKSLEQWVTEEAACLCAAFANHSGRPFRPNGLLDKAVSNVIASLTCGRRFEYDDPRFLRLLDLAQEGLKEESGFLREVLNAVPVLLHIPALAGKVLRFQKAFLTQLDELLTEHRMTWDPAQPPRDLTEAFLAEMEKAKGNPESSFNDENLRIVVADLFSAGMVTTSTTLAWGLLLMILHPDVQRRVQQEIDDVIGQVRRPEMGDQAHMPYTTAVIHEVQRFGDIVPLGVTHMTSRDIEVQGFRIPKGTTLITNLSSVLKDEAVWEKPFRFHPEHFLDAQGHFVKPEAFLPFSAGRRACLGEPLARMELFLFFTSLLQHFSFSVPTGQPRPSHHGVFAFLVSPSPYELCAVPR
Sequence of CYP3A4(BFC) (P08684 whole entry): as the sequence (P08684 whole entry) above
Sequence of CYP2C9 (P11712 whole entry): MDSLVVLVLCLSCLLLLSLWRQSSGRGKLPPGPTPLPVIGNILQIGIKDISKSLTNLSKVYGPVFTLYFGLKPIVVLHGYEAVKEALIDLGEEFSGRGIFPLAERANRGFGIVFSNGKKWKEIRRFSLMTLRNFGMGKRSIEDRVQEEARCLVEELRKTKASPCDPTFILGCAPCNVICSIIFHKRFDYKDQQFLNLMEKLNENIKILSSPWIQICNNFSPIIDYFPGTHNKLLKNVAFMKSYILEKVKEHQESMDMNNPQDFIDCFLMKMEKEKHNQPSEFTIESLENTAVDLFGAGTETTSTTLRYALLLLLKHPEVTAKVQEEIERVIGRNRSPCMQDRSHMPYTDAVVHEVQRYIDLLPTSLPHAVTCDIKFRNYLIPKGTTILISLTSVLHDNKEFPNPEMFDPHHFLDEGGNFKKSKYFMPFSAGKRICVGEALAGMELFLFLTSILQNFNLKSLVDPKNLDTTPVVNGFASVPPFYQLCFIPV

A word on the IC50: it is the midpoint of a concentration-inhibition curve. For the molecule `Cc1cnc2[nH]cc(Cc3cnc(NCc4cccc(N5CCCC5)n4)nc3)c2c1` [Compound P-2082, [5-(5-Methyl-1H-pyrrolo[2,3-b]pyridin-3-ylmethyl)-pyrimidin-2-yl]-(6-pyrrolidin-1-yl-pyridin-2-ylmethyl)-amine], in data set [1], the “Biochemical activity selectivity (Kit IC50/Fms IC50)” value is less than 20. Also, the IC50 in data set [1] (setting [9]) was less than 0.1 µM; in data set [2], less than 0.1 µM; in data set [3] (human, 15 min), more than 10 µM; in data set [4] it was less than 5 µM; in data set [5] (read-out: Cyp IC50 (μM) 2C9), less than 5 µM; in data set [6], more than 10 µM. The IC50 in data set [7] (setting [10]) and in data set [8] (setting [11]) was less than 5 µM each time.

Turning to `Cc1cnc2[nH]cc(Cc3ccc(NCc4ccc(Cl)nc4)nc3F)c2c1` [Compound P-2088, (6-Chloro-pyridin-3-ylmethyl)-[6-fluoro-5-(5-methyl-1H-pyrrolo[2,3-b]pyridin-3-ylmethyl)-pyridin-2-yl]-amine], the “Biochemical activity selectivity (Kit IC50/Fms IC50)” value in data set [1] is more than 20. Moreover, the IC50 in data set [1] (setting [9]) was less than 0.1 µM; in data set [2], more than 0.1 µM; in data set [3] (read-out: Cyp IC50 (μM) 1A2) it was more than 10 µM; in data set [4] it was less than 5 µM; in data set [5] (read-out: Cyp IC50 (μM) 2C9), less than 5 µM; in data set [6] it was more than 10 µM. The IC50 in data set [7] and in data set [8] was 5 to 10 µM in each case.

As to `Cc1cnc2[nH]cc(Cc3ccc(NCc4cccnc4F)nc3F)c2c1` [Compound P-2103, [6-Fluoro-5-(5-methyl-1H-pyrrolo[2,3-b]pyridin-3-ylmethyl)-pyridin-2-yl]-(2-fluoro-pyridin-3-ylmethyl)-amine], the “Biochemical activity selectivity (Kit IC50/Fms IC50)” value in data set [1] is given as more than 20. Also, the IC50 in data set [1] (setting [9]) is less than 0.1 µM; in data set [2], more than 0.1 µM; in data set [3] (human, 15 min), more than 10 µM; in data set [4], less than 5 µM; in data set [5] (read-out: Cyp IC50 (μM) 2C9) it was less than 5 µM; in data set [6] it was more than 10 µM. The IC50 in data set [7] and in data set [8] was 5 to 10 µM in each case.

Consider `Cc1cnc2[nH]cc(Cc3ccc(NCc4ccnc(F)c4)nc3F)c2c1` [Compound P-2118, [6-Fluoro-5-(5-methyl-1H-pyrrolo[2,3-b]pyridin-3-ylmethyl)-pyridin-2-yl]-(2-fluoro-pyridin-4-ylmethyl)-amine], for which the “Biochemical activity selectivity (Kit IC50/Fms IC50)” value in data set [1] is reported as more than 20. For the same molecule, the IC50 in data set [1] (setting [9]) was less than 0.1 µM; in data set [2] it was more than 0.1 µM; in data set [3] (human, 15 min), more than 10 µM; in data set [4], less than 5 µM; in data set [5], 5 to 10 µM; in data set [6], more than 10 µM. In addition, the IC50 was 5 to 10 µM in data set [7] and more than 10 µM in data set [8] (setting [11]).

As for `COc1ncccc1CNc1ncc(Cc2c[nH]c3ncc(C)cc23)cn1` [Compound P-2139, (2-Methoxy-pyridin-3-ylmethyl)-[5-(5-methyl-1H-pyrrolo[2,3-b]pyridin-3-ylmethyl)-pyrimidin-2-yl]-amine], the “Biochemical activity selectivity (Kit IC50/Fms IC50)” value in data set [1] was more than 20. Further, the IC50 in data set [1] (setting [9]) is less than 0.1 µM; in data set [2] it was more than 0.1 µM; in data set [3] (human, 15 min) it was more than 10 µM; in data set [4], more than 10 µM; in data set [5], 5 to 10 µM; in data set [6] it was more than 10 µM. Besides, the IC50 was 5 to 10 µM in data set [7] and more than 10 µM in data set [8] (setting [11]).

Consider `Cc1cnc2[nH]cc(Cc3cnc(NCc4ccc(C(F)(F)F)nc4)c(F)c3)c2c1` [Compound P-2146, [3-Fluoro-5-(5-methyl-1H-pyrrolo[2,3-b]pyridin-3-ylmethyl)-pyridin-2-yl]-(6-trifluoromethyl-pyridin-3-ylmethyl)-amine], for which, in data set [1], the “Biochemical activity selectivity (Kit IC50/Fms IC50)” value is recorded as less than 20. The IC50 in data set [1] (setting [9]) is less than 0.1 µM; in data set [2] it was less than 0.1 µM; in data set [3] (human, 15 min), more than 10 µM; in data set [4] it was less than 5 µM; in data set [5], 5 to 10 µM; in data set [6] it was more than 10 µM. In addition, the IC50 in data set [7] (setting [10]) and in data set [8] (setting [11]) was more than 10 µM throughout.

As to `COc1cnc2[nH]cc(Cc3cnc(NCc4ccc(C(F)(F)F)nc4)c(F)c3)c2c1` [Compound P-2147, [3-Fluoro-5-(5-methoxy-1H-pyrrolo[2,3-b]pyridin-3-ylmethyl)-pyridin-2-yl]-(6-trifluoromethyl-pyridin-3-ylmethyl)-amine], the “Biochemical activity selectivity (Kit IC50/Fms IC50)” value in data set [1] is given as less than 20. In addition, the half-maximal inhibitory concentration (IC50) is less than 0.1 µM in data set [1] (setting [9]); less than 0.1 µM in data set [2]; more than 10 µM in data set [3] (human, 15 min); less than 5 µM in data set [4]; more than 10 µM in data set [5] (read-out: Cyp IC50 (μM) 2C9); more than 10 µM in data set [6]. The IC50 in data set [7] and in data set [8] was 5 to 10 µM throughout.

With `COc1ncc(CNc2ccc(Cc3c[nH]c4ncc(Cl)cc34)c(F)n2)cc1F` [Compound P-2165, [5-(5-Chloro-1H-pyrrolo[2,3-b]pyridin-3-ylmethyl)-6-fluoro-pyridin-2-yl]-(5-fluoro-6-methoxy-pyridin-3-ylmethyl)-amine], the IC50 in data set [1] (100 μM ATP, read-out: Biochemical (IC50 μM) Fms) is less than 0.1 µM; in data set [1] (setting [9]), less than 0.1 µM; in data set [2], more than 0.1 µM; in data set [3] (human, 15 min), more than 10 µM; in data set [4] it was more than 10 µM; in data set [5] (read-out: Cyp IC50 (μM) 2C9), more than 10 µM. The IC50 in data set [6], in data set [7] (setting [10]) and in data set [8] (setting [11]) was more than 10 µM each time. Moreover, the “Biochemical activity selectivity (Kit IC50/Fms IC50)” value in data set [1] is reported as more than 20.
